Experiments:
[1] = biological target: T1, Itk (Homo sapiens, UniProt Q08881); assay: Itk in vitro inhibitory activity in radioassay (33P incorporation into Phospholipase C-γ-1); type: biochemical; conditions: 20 μM ATP solution, read-out: IC50 over Itk
T1 construct: purchased Invitrogen
T1 sequence (Q08881 1-620): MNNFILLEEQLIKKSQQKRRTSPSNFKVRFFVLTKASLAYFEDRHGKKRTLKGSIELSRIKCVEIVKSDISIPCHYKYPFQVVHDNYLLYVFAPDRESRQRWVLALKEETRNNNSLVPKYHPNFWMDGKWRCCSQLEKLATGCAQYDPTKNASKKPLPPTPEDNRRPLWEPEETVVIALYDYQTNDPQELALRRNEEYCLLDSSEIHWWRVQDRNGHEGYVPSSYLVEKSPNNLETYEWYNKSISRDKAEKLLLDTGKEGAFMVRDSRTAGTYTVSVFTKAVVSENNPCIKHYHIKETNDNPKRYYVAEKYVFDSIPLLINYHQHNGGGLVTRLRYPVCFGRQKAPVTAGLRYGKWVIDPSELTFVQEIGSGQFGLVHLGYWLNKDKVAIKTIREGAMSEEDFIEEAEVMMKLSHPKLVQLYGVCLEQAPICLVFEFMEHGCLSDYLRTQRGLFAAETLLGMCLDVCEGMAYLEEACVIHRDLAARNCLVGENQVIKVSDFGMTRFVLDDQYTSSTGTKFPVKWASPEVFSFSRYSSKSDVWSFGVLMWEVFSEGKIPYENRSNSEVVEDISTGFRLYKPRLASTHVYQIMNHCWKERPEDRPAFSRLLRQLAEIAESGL
Method: The Itk protein kinase activity (Invitrogen) was determined by measuring the incorporation of ^33P from γ-[^33P] ATP into the Phospholipase C-γ-1 substrate (Calbiochem). The dilution series of the compound of the present invention were dissolved in DMSO. The diluted solution (1 μl) of the compounds of the present invention in DMSO was added to a 96-well assay plate. Additionally, Itk kinase solution (39 μL) composed of 3.2 nM Itk (Invitrogen) in reaction buffer (12.5 mM Tris (pH 7.5), 0.01% Triton X-100, 5% glycerol, 10 mM MgCl2, 1 mM EGTA, 5 mM glycerol 2-phosphate, 2 mM DTT and 0.5 mM sodium orthovanadate) was added to the assay plates. The solution was pre-incubated for 20 minutes at 30° C. with shaking. Then ATP/substrate solution (10 μl) composed of […] Phospholipase C-γ-1 (Calbiochem), 1.5% v/v γ-^33P-ATP (PerkinElmer), 20 μM ATP and reaction buffer was added. After incubating at 30° C. with shaking for 70 minutes, the reaction was stopped by adding 10 μl of 0.6 M phosphoric acid to each well. The each reaction from the assay plate was transferred and captured on a phosphocellulose 96-well plate (Millipore MAPHNOB). The reaction mixture was analyzed on the PerkinElmer TopCount NXT HTS 96-well Liquid Scintillation counter.
Inhibition rate (%) of the compound was calculated with the following formula: Inhibition rate(%)={1−(Bx−B100)/(B0−B100)}×100
BX: average counts for the compound
B100: average counts for 100% inhibition control (i.e., no enzyme, no compound)
B0: average counts for 0% inhibition control (i.e., no compound)
The value of 50% inhibition rate (IC50) for the compound was defined as the concentration of the test compound that caused a 50% decrease in the maximum inhibition. IC50 values were calculated from replicate curves by non-linear regression using the sigmoidal dose-response equation in GraphPad Prism software.

[2] = biological target: Btk (Homo sapiens, UniProt Q06187); assay: Inhibitory activity to Btk (similar procedure); type: biochemical; conditions: selectivity ratio
Btk, sequence (Q06187 whole entry, species assumed): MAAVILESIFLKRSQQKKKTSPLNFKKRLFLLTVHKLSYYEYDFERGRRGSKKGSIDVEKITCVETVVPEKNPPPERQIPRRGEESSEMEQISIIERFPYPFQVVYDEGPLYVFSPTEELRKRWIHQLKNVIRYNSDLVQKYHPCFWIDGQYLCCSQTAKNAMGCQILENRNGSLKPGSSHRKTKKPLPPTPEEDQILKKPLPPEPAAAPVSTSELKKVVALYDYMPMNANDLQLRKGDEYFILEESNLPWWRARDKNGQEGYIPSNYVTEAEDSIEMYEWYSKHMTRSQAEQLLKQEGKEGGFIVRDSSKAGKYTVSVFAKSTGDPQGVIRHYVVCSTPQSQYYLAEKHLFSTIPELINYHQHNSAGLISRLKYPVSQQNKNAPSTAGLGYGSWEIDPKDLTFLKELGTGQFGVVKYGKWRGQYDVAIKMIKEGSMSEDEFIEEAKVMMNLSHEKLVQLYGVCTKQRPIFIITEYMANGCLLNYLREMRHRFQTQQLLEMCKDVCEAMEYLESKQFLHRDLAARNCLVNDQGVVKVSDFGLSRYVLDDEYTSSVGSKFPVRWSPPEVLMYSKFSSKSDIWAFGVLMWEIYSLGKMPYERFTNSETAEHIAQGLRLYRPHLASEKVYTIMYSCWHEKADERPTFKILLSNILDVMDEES
Method: (§1) Study of inhibitory activity to other various kinases (e.g. Lck, InsR, Btk) was performed in similar procedure above described.

[3] = biological target: InsR (Homo sapiens, UniProt P06213); assay: Inhibitory activity to InsR (similar procedure); type: biochemical; conditions: selectivity ratio
InsR, sequence (P06213 28-1382, species assumed): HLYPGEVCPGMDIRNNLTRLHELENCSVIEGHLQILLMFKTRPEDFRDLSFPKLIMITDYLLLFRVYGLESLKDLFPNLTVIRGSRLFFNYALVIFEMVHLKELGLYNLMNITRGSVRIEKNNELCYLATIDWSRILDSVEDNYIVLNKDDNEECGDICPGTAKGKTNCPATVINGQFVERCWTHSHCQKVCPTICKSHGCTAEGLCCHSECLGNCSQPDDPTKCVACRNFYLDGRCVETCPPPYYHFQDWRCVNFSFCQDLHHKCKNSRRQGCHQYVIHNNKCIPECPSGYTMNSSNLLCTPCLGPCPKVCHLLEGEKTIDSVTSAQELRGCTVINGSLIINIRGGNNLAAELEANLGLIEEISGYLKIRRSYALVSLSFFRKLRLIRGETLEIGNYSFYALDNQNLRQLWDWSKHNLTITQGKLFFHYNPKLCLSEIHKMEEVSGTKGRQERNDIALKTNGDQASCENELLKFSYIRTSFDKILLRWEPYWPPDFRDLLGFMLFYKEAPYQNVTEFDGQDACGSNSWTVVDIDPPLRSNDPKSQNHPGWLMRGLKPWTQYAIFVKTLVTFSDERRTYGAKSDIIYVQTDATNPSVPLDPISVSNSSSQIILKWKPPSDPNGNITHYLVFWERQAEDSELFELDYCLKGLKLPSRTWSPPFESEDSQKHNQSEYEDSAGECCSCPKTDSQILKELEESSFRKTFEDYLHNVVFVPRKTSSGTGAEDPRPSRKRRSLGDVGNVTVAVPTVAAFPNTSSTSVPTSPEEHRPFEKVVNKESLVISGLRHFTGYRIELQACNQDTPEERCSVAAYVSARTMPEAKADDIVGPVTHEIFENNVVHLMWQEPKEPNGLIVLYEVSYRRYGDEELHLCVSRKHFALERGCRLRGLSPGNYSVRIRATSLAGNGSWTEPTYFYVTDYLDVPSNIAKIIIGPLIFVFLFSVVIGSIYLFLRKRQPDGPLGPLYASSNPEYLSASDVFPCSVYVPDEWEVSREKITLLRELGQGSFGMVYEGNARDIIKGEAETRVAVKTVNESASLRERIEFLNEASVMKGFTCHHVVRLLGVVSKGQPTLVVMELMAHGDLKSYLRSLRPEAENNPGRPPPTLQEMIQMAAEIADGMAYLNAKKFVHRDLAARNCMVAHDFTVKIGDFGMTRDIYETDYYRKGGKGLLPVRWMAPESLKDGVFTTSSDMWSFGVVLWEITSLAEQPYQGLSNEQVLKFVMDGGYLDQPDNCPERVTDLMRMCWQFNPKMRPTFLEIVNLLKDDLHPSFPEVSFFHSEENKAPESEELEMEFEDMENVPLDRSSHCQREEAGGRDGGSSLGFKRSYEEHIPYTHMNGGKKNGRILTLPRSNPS
Method: as §1

[4] = biological target: Lck (Homo sapiens, UniProt P06239); assay: Inhibitory activity to Lck (similar procedure); type: biochemical; conditions: selectivity ratio
Lck, sequence (P06239 whole entry, species assumed): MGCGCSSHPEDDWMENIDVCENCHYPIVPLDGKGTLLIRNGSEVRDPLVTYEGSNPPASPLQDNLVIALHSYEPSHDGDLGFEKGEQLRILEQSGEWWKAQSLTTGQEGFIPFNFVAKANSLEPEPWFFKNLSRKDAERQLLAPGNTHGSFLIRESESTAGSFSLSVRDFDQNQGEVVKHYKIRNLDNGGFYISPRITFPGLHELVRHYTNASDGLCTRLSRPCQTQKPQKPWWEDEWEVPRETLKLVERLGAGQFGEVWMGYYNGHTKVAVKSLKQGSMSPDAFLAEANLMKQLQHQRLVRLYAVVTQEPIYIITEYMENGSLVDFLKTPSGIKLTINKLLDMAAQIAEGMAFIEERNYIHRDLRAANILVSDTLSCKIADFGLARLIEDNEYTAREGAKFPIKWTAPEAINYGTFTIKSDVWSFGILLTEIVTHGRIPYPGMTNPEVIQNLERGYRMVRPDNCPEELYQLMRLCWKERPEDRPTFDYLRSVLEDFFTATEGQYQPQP
Method: Study of inhibitory activity to Lck was performed in similar procedure above described.
as §1

[5] = system: IL-2 production in mouse whole blood; assay: Mouse whole blood IL-2 assay; type: cell-based, BALB/c mouse; conditions: anti-CD3/anti-CD28 stimulation, 18 hours, IL-2 by ELISA
Method: The dilution series of the compound of the present invention in DMSO were further diluted by addition of RPMI1640 medium (Invitrogen). The diluted compound solution (6.5 μl) was added to a 96-well plate. BALB/c mouse heparinized peripheral blood was diluted 1:2 in RPMI1640, and added 123.5 μl of the diluted blood to the compound plate. The blood samples were pre-incubated at 37° C. for 30 minutes. Anti-CD3 and anti-CD28 antibody mixture (6 μl; 20 μg/mL each) was spotted into a 96 well assay plates. Pre-treated blood samples (114 μl) were added to each well and the plate was incubated for 18 hours at 37° C. in 5% CO2. After the incubation, supernatants were collected by centrifugation at 300×g for 10 min. IL-2 concentration was determined by ELISA method. The inhibition rate (%) of the compound was calculated with the following formula: Inhibition rate(%)={1−(Cx−C100)/(C0−C100)}×100
CX: IL-2 concentration for the compound
C100: IL-2 concentration for 100% inhibition control (i.e., no stimulation, no compound)
C0: IL-2 concentration for 0% inhibition control (i.e., no compound)
The value of 50% inhibition rate (IC50) for the compound was determined from inhibition curve based on inhibition rate at each concentration of the compound of the present invention.

Structure (SMILES) | IC50 [1] | Btk[IC50]/Itk[IC50] [2] | InsR[IC50]/Itk[IC50] [3] | Lck[IC50]/Itk[IC50] [4] | IC50 [5]
COc1cccc(-n2c(=O)c(C(=O)Nc3ccc(-c4nc(-c5ccnc(N6CC(OC)C6)c5)cnc4N)nc3)c(C)n2C)c1 [Example 29(33), N-(6-{3-amino-6-[2-(3-methoxy-1-azetidinyl)-4-pyridinyl]-2-pyrazinyl}-3-pyridinyl)-2-(3-methoxyphenyl)-1,5-dimethyl-3-oxo-2,3-dihydro-1H-pyrazole-4-carboxamide] | 4 nM |  |  |  | 
COC1CCN(c2cccc(-c3cnc(N)c(-c4ccc(NC(=O)c5c(C)n(C)n(-c6cccc(C)c6)c5=O)cc4)n3)n2)CC1 [Example 17(11), N-(4-{3-amino-6-[6-(4-methoxy-1-piperidinyl)-2-pyridinyl]-2-pyrazinyl}phenyl)-1,5-dimethyl-2-(3-methylphenyl)-3-oxo-2,3-dihydro-1H-pyrazole-4-carboxamide] | 1 nM | >1000 | >300 | >300 | 
Cc1c(C(=O)Nc2ccc(-c3nc(-c4cccc(N5CCOCC5)n4)cnc3N)cc2)c(=O)n(-c2ccccc2)n1C [Example 7(6), N-(4-{3-amino-6-[6-(4-morpholinyl)-2-pyridinyl]-2-pyrazinyl}phenyl)-1,5-dimethyl-3-oxo-2-phenyl-2,3-dihydro-1H-pyrazole-4-carboxamide] | 2 nM | >200 | 100 | 85 | 
COC1CN(c2cccc(-c3cnc(N)c(-c4ccc(NC(=O)c5c(C)n(C)n(-c6cccc(Cl)c6)c5=O)cc4)n3)n2)C1 [Example 14(12), N-(4-{3-amino-6-[6-(3-methoxy-1-azetidinyl)-2-pyridinyl]-2-pyrazinyl}phenyl)-2-(3-chlorophenyl)-1,5-dimethyl-3-oxo-2,3-dihydro-1H-pyrazole-4-carboxamide] | 2 nM | >500 | 1400 | 185 | 
Cc1c(C(=O)Nc2ccc(-c3nc(-c4ccnc(N5CCOCC5)c4)cnc3N)nc2)c(=O)n(-c2cccc(Cl)c2)n1C [Example 29(2), N-(6-{3-amino-6-[2-(4-morpholinyl)-4-pyridinyl]-2-pyrazinyl}-3-pyridinyl)-2-(3-chlorophenyl)-1,5-dimethyl-3-oxo-2,3-dihydro-1H-pyrazole-4-carboxamide] | 1 nM | >1000 | >1000 | >360 | 350 nM

— patent US8962623B2, “Aminopyrazine compounds” (Locus Pharmaceuticals, Inc., priority 2011, dated 2015)
